In article PMC6687188, “Novel lactate dehydrogenase inhibitors with in vivo efficacy against Cryptosporidium parvum” (PLoS Pathogens, 2019):

Target: recombinant CpLDH protein (Cryptosporidium parvum, UniProt Q9GT92, F198L/K295E/R251K)

Row | SMILES | MEAN CpLDH INHIBITION (%)
1 | Cc1ccccc1NC(=O)C(=O)C(C(=O)c1ccccc1F)C1OC(=O)c2ccccc21 (stereo not drawn) [NSC641228] | -51.30%
2 | CC1=C(C(=O)NCc2ccccc2)C(c2ccccc2O)C(C(=O)NCc2ccccc2)=C(C)N1 [NSC634928] | -21.25%
3 | CN(C)CCNC(=O)c1cccc2[nH]c(-c3ccncc3)nc12.Cl [NSC678932] | -5.91%
4 | CN(C)c1ccc2c(SCC(=O)OCC(=O)[C@@]3(O)CC[C@H]4[C@@H]5CCC6=CC(=O)C=C[C@]6(C)[C@H]5C(=O)C[C@@]43C)c3ccc(N(C)C)cc3nc2c1 [NSC337851] | -16.37%
5 | O=C(O)c1ccc(Nc2c3ccccc3nc3ccccc23)cc1.[Na+] [NSC235082] | -28.09%
6 | NC(=O)C1=C[C@H]2[C@@H]3C=C[C@@]2(O)C(=O)O[C@@H]3O1 [NSC357683] | -9.72%
7 | CN1CC[C@]23c4ccccc4N[C@H]1[C@]21CCN(C)[C@H]3Nc2ccccc21 [NSC99016] | -25.29%
8 | [Cl-].c1csc(C[N+]23CN4CN(CN(C4)C2)C3)c1 [NSC49660] | -3.53%
9 | N#CCCN(CCC#N)c1ccc(/C=C2\N=C(c3cc([N+](=O)[O-])ccc3Cl)OC2=O)cc1 [NSC637916] | -14.05%
10 | O=C1Cc2c(-c3ccccc3)cc(-c3cccc(Cl)c3)nc2-c2ccccc2N1 [NSC684480] | -22.58%
11 | COc1ccc2nc(C)cc(NCCCCCCCCCNc3cc(C)nc4ccc(OC)cc34)c2c1 [NSC10010] | -19.54%
12 | CCCCCCCCCCCCCCCCCCOP(=O)([O-])OCC[N+](C)(C)C [NSC282880] | -0.05%
13 | Cc1nn(-c2ccccc2)c2c1CC(=O)Nc1ccccc1-2 [NSC662553] | -64.36%
14 | Cc1c2cnccc2c(C)c2c1c1ccccc1n2CCOC(=O)c1ccccc1 [NSC163443] | -14.23%
15 | CC1=C2C(=CO[C@H](C)[C@H]2C)C(=O)C(C(=O)O)=C1O [NSC186] | -47.49%
16 | COc1ccccc1[S+]([O-])Nc1ccccc1 (stereo not drawn) [NSC676561] | -16.89%
17 | c1coc(CNc2ncnc3[nH]ncc23)c1 [NSC1620] | -4.87%
18 | CN(C)c1cccc(/C=C(\C#N)c2ccccc2)c1 [NSC667251] | -17.96%
19 | O=c1cccccc1O [NSC89303] | -7.26%
20 | COc1cc([C@@H]2c3cc4c(c(O)c3C[C@H]3COC(=O)[C@@H]32)OCO4)cc(OC)c1O [NSC24817] | -20.22%
21 | NC(=Nc1nc(-c2ccccn2)cc2ccccc12)c1ccccn1 [NSC637578] | -28.84%
22 | O=C1OC(c2ccccc2)=N/C1=C\c1ccc(N(CCCl)CCCl)cc1 [NSC104117] | -18.47%
23 | O=C([O-])c1cc(I)cc(I)c1[OH2+].O=C([O-])c1cc(I)cc(I)c1[OH2+].[Mn+2] [NSC619907] | -115.80%
24 | CC1=CC(=O)c2cccc(NC3=NCCO3)c21 [NSC664331] | -15.78%
25 | Cc1nc(-n2nc(-c3ccccc3)cc2-c2ccccc2)sc1C(=O)/C=C/c1ccc(Cl)c(Cl)c1 [NSC640584] | -6.68%
26 | COC(=O)/C(=N\NC(=O)c1ccccc1O)C(C#N)c1ccccc1 (stereo not drawn) [NSC635337] | -28.29%
27 | CC(=O)/C(C)=N/NC(=O)c1ccccc1O [NSC635441] | -52.88%

Row | SMILES | MEAN CpLDH INHIBITION (%)
28 | O=C(c1ccccc1)C1OC12C(=O)Nc1c(Cl)cc(Cl)cc12 (stereo not drawn) [NSC635306] | -37.53%
29 | Cc1c(Cl)ccc2c1NC(=O)C2(O)C(C(=O)c1ccccc1)c1ccccc1 (stereo not drawn) [NSC635321] | -39.51%
30 | CCOC(=O)CNC(=O)NC12CC3CC(CC(C3)C1)C2 [NSC208914] | -37.53%
31 | CC1=CC(=C(c2ccc(N)cc2)c2ccc(N)cc2)C=CC1=N.Cl [NSC93739] | -24.21%
32 | O=C(N=Nc1c(O)[nH]c2ccccc12)c1ccccc1O [NSC635404] | -38.57%
33 | CCCCCC(/C=C/[C@@H]1CC(=O)C[C@H]1O[Si](C)(C)C(C)(C)C)OCOCCOC (stereo partly drawn) [NSC689228] | -5.60%
34 | O=C1Oc2ccccc2C(=O)/C1=C1\C=C(c2ccccc2)SS1 [NSC293927] | -15.46%
35 | C1CN(c2nnc(N3CCC3)nn2)C1 [NSC625748] | -117.70%
36 | O=C(Nc1ccccc1-c1nn(C(=S)Nc2ccccc2)c(=S)n(C(=S)Nc2ccccc2)c1=O)C(F)(F)F [NSC623093] | -49.57%
37 | N#C/C(=C\c1ccc2ccccc2c1)C(=O)c1ccccc1 [NSC643186] | -12.83%
38 | O=[N+]([O-])c1ccc2oc(=Nc3ccccc3)c(Nc3ccccc3)nc2c1 [NSC671424] | -1.46%
39 | COc1cc2c3c(n(C)c(=O)c2cc1OC)-c1cc2c(cc1C3=O)OCO2 [NSC314622] | -4.47%
40 | CN(C)[C@@H]1C(=O)C(C(N)=O)=C(O)[C@@]2(O)C(=O)C3=C(O)c4c(O)cccc4C[C@H]3C[C@@H]12 [NSC51812] | -26.06%
41 | N=N/C(=C\c1c(O)[nH]c2ccccc12)c1ccccc1 [NSC175274] | -25.99%
42 | Cc1cccc(NC(=O)/C=C/c2ccc([N+](=O)[O-])cc2)c1 [NSC139109] | -11.32%
43 | CCC1=C(C[C@H]2NCCc3cc(OC)c(OC)cc32)C[C@H]2c3cc(OC)c(OC)cc3CCN2C1 [NSC129414] | -16.26%
44 | Cl.Nc1nc(N)c2ncn(-c3ccccc3)c2n1 [NSC29603] | -54.90%
45 | CCOC(=O)C1=C(O)CSC1=Nc1ccc(N=C2SCC(O)=C2C(=O)OCC)cc1 [NSC623746] | -45.42%
46 | COc1ccc(NC(=O)CC(=O)N2N=C(C)C(N=Nc3ccc(S(=O)(=O)c4ccc(N=NC5C(=O)N(C(=O)CC(=O)Nc6ccc(OC)cc6)N=C5C)cc4)cc3)C2=O)cc1 (stereo not drawn) [NSC677392] | -119.10%
47 | COc1cccc2c1C(=O)c1c(O)c3c(c(O)c1C2=O)C[C@@](O)(C(C)=O)C[C@@H]3OC1CC(N(Cc2ccccc2)Cc2ccccc2)C(O)C(C)O1.Cl (stereo partly drawn) [NSC268242] | -40.28%
48 | CC(=O)OCCN1c2ccccc2Sc2cnccc21 [NSC168221] | -24.94%
49 | COc1cccc2c1C(=O)c1c(O)c3c(c(O)c1C2=O)C[C@@](O)(C(C)=O)C[C@@H]3O[C@@H]1C[C@@H](N(C)C)[C@@H](O)[C@@H](C)O1 [NSC258812] | -2.78%
50 | CC(C)(C)CC(C)(C)NCC(O)COc1ccc(C(C)(C)c2ccc(OCC(O)CNC(C)(C)CC(C)(C)C)cc2)cc1.Cl (stereo not drawn) [NSC145366] | -111.71%
51 | C[C@@H]1CC[C@H]2C(C)(C)[C@H]3C[C@@]12CC[C@@]3(C)O [NSC403883] | -51.63%
52 | CO[C@H]1/C=C/O[C@@]2(C)Oc3c(C)c(O)c4c(c3C2=O)C(=O)C=C(NC(=O)/C(C)=C\C=C\[C@H](C)[C@H](OC=O)[C@@H](C)[C@@H](O)[C@@H](C)[C@H](OC(C)=O)[C@@H]1C)C4=O [NSC239375] | -42.34%
53 | COc1ccc(-c2cc(-c3ccccc3)nc3c2CC(=O)Nc2ccccc2-3)cc1OC [NSC682769] | -0.10%
54 | [N-]=[N+]=NC1=NNC2(C(=O)N1)c1ccccc1-c1ccccc12 [NSC666168] | -17.65%
